Marks after values point to notes of the source that are not given here.
Columns and labels:
[1] = In vivo pharmacokinetic study in mice, oral ibrutinib (plasma, LC-MS/MS)
Description: (§1) Experiments were performed with male and female mice from inbred wild-type strains (FVB, C57BL/6, DBA) or with age- and sex-matched genetically engineered mice with a deficiency of the Cyp3a locus [(8 genes; FVB.129P2-Cyp3a13^tm1Ahs Del (5Cyp3a57-Cyp3a59)1Ahs); ref. [16]; CYP3A^−/−], a deficiency of the intestinal transporter OATP2B1 (ref. [17]; OATP2B1 ^−/−), or the hepatic transporter OATP1B2 (ref. [18]; OATP1B2 ^−/−). […] The studies were approved by the University Laboratory Animal Resources Animal Care and Use Committee at The Ohio State University (Columbus, OH). […] For in vivo studies, drugs were prepared in standard vehicles ([19, 20]). Details regarding the preparation of drugs are provided in the Supplementary Methods.
(§2) Pharmacokinetic studies were performed as described previously ([21]). Further details are provided in the Supplementary Methods.
(§3) The lower limit of quantification was 5 ng/mL, using 5-μL sample volumes. Details regarding the analytic method are provided in the Supplementary Methods.
(§4) Ketoconazole was prepared for oral administration as a 10-mg/mL suspension in PEG400, and cobicistat as a 6-mg/mL suspension in corn oil.
(§5) Pharmacokinetic studies were performed as previously described.
The analytical equipment consisted of a Vanquish UHPLC system, a TSQ Quantum Ultra triple quadrupole mass spectrometer from Thermo Fisher Scientific, and Thermo Trace Finder General Quan system software (version 3.3). An Accucore Vanquish C18 column (100 × 2.1 mm, dp = 1.5 μm; Thermo Fisher Scientific) was protected by a corresponding XBridgeBEH C18, 5-μm guard column. The injection volume of sample was 5.0 μL. The temperature of the autosampler rack was 4 °C, and the temperature of the column was 40 °C. Mobile phase A consisted of water with 0.1% (v/v) formic acid and mobile phase B consisted of acetonitrile: methanol (1:3) with 0.1% (v/v) formic acid. The total run time was 5 min. The mobile phase was delivered at a flow rate of 0.4 mL/min, and the optimized gradient contained time-varying amounts of mobile phase B, as follows: 0-0.5 min, 10% B; 0.5-1.5 min, 95% B; 1.5-2.9 min, 95% B; 2.9-3.0 min, 10% B; and 3.0-5.0 min, 10% B. The mass spectrometric assay settings included a positive voltage applied to the ESI capillary of 3500 V, a capillary temperature of 342 °C, and a vaporizer temperature of 358 °C. Argon was used a collision gas at a pressure of 1.5 mTorr. […] For sample extraction by protein precipitation, 5 µL of plasma, 5 µL of microsomal suspension, or 10 µL of homogenized tissue were added to a tube containing 60 µL of internal standard solution and 20 µL of methanol. Samples were then vortex-mixed, centrifuged at 13,000 rpm for 9.5 min, and supernatants collected and stored frozen until analysis. […] The lower limit of quantification was 5 ng/mL, using 5-µL sample volumes.

[2] = In vivo pharmacokinetic study in mice, intravenous ibrutinib (plasma); conditions: female wild-type FVB mice, ibrutinib 1 mg/kg IV; for PCI-45227 AUC(0-last) / PCI-45227 Cmax: mean (SD)
Description: as §1, §2, §3, §4, §5

[3] = population PK model estimate, mice
[4] = parameters: method as in earlier work; conditions: PBPK model parameter, ref [17, 18] and Drugbank, cited from earlier work
[5] = parameters: method as in earlier work; conditions: PBPK model parameter, ref [17, 18] and Drugbank, cited from earlier work; remark: listed apart in the source
[6] = female CYP3A-/- mice, ibrutinib 10 mg/kg oral, no cotreatment, mean (SE)
[7] = female OATP1B2(-/-) mice, ibrutinib 10 mg/kg PO, no co-treatment, mean (SD)
[8] = female OATP2B1(-/-) mice, ibrutinib 10 mg/kg PO, no co-treatment, mean (SD)
[9] = female wild-type C57BL/6 mice, ibrutinib 10 mg/kg PO, no co-treatment, mean (SD)
[10] = female wild-type DBA mice, ibrutinib 10 mg/kg PO, no co-treatment, mean (SD)
[11] = female wild-type FVB mice, ibrutinib 4 mg/kg oral, cotreatment cobicistat 30 mg/kg, mean (SE)
[12] = female wild-type FVB mice, ibrutinib 10 mg/kg oral single dose, cotreatment cobicistat 30 mg/kg, mean (SE)
[13] = female wild-type FVB mice, ibrutinib 10 mg/kg oral single dose, cotreatment corn oil, mean (SE)
[14] = female wild-type FVB mice, ibrutinib 10 mg/kg oral, cotreatment PEG400, mean (SE)
[15] = female wild-type FVB mice, ibrutinib 10 mg/kg oral, cotreatment cobicistat 30 mg/kg, steady-state, mean (SE)
[16] = female wild-type FVB mice, ibrutinib 10 mg/kg oral, cotreatment corn oil, steady-state, mean (SE)
[17] = female wild-type FVB mice, ibrutinib 10 mg/kg oral, cotreatment ketoconazole 50 mg/kg, mean (SE)
[18] = female wild-type FVB mice, ibrutinib 10 mg/kg oral, no cotreatment, mean (SE)
[19] = female wild-type FVB mice, ibrutinib 30 mg/kg oral, no cotreatment, mean (SE)
[20] = male OATP2B1(-/-) mice, ibrutinib 10 mg/kg PO, no co-treatment, mean (SD)
[21] = male wild-type C57BL/6 mice, ibrutinib 10 mg/kg PO, no co-treatment, mean (SD)
[22] = male wild-type FVB mice, ibrutinib 10 mg/kg PO, co-treatment No Vehicle (cobicistat experiment), mean (SD)
[23] = male wild-type FVB mice, ibrutinib 10 mg/kg PO, co-treatment None (ketoconazole experiment), mean (SD)
[24] = male wild-type FVB mice, ibrutinib 10 mg/kg PO, co-treatment PEG400, mean (SD)
[25] = male wild-type FVB mice, ibrutinib 10 mg/kg PO, co-treatment cobicistat, mean (SD)
[26] = male wild-type FVB mice, ibrutinib 10 mg/kg PO, co-treatment corn oil, mean (SD)
[27] = male wild-type FVB mice, ibrutinib 10 mg/kg PO, co-treatment ketoconazole, mean (SD)

## Nc1ncnc2c1c(-c1ccc(Oc3ccccc3)cc1)nn2[C@@H]1CCCN(C(=O)C(O)CO)C1 (some centres unmarked) [PCI-45227]
[1]; CYP3A-/- mice, oral ibrutinib
  levels of PCI-45227: almost undetectable levels
[1]; female CYP3A-/- mice, ibrutinib 10 mg/kg oral, no cotreatment
  PCI-45227: Ibrutinib AUC ratio: 0.003
[1]; [6]
  PCI-45227 AUC(0-last): 6.3 (1.7)^c ng/h/mL
  PCI-45227 Cmax: 8.2 (2.1)^c ng/mL
[1]; female OATP1B2(-/-) mice, ibrutinib 10 mg/kg PO, no co-treatment
  PCI-45227: Parent AUC Ratio: 0.14
[1]; [7]
  PCI-45227 AUC(0-last): 304 (12) ng*hr/mL
  PCI-45227 Cmax: 157 (9) ng/mL
[1]; female OATP2B1(-/-) mice, ibrutinib 10 mg/kg PO, no co-treatment
  PCI-45227: Parent AUC Ratio: 1.1
[1]; [8]
  PCI-45227 AUC(0-last): 1952 (168)** ng*hr/mL
  PCI-45227 Cmax: 745 (115)** ng/mL
[1]; female wild-type C57BL/6 mice, ibrutinib 10 mg/kg PO, no co-treatment
  PCI-45227: Parent AUC Ratio: 2.1
[1]; [9]
  PCI-45227 AUC(0-last): 3007 (236) ng*hr/mL
  PCI-45227 Cmax: 1373 (70) ng/mL
[1]; female wild-type DBA mice, ibrutinib 10 mg/kg PO, no co-treatment
  PCI-45227: Parent AUC Ratio: 0.12
[1]; [10]
  PCI-45227 AUC(0-last): 343 (52) ng*hr/mL
  PCI-45227 Cmax: 234 (47) ng/mL
[1]; female wild-type FVB mice, ibrutinib 4 mg/kg oral, cotreatment cobicistat 30 mg/kg
  PCI-45227: Ibrutinib AUC ratio: 0.05
[1]; [11]
  PCI-45227 AUC(0-last): 56 (22)^c ng/h/mL
  PCI-45227 Cmax: 30.7 (12.1)^c ng/mL
[1]; female wild-type FVB mice, ibrutinib 10 mg/kg oral single dose, cotreatment cobicistat 30 mg/kg
  PCI-45227: Ibrutinib AUC ratio: 0.05
[1]; [12]
  PCI-45227 AUC(0-last): 139 (56)^c ng/h/mL
  PCI-45227 Cmax: 45 (14)^c ng/mL
[1]; female wild-type FVB mice, ibrutinib 10 mg/kg oral single dose, cotreatment corn oil
  PCI-45227: Ibrutinib AUC ratio: 2.0
[1]; [13]
  PCI-45227 AUC(0-last): 563 (91)^d ng/h/mL
  PCI-45227 Cmax: 219 (61)^b ng/mL
[1]; female wild-type FVB mice, ibrutinib 10 mg/kg oral, cotreatment PEG400
  PCI-45227: Ibrutinib AUC ratio: 0.87
[1]; [14]
  PCI-45227 AUC(0-last): 668 (155) ng/h/mL
  PCI-45227 Cmax: 246 (54) ng/mL
[1]; female wild-type FVB mice, ibrutinib 10 mg/kg oral, cotreatment cobicistat 30 mg/kg, steady-state
  PCI-45227: Ibrutinib AUC ratio: 0.25
[1]; [15]
  PCI-45227 AUC(0-last): 560 (73)^b ng/h/mL
  PCI-45227 Cmax: 211 (65) ng/mL
[1]; female wild-type FVB mice, ibrutinib 10 mg/kg oral, cotreatment corn oil, steady-state
  PCI-45227: Ibrutinib AUC ratio: 2.0
[1]; [16]
  PCI-45227 AUC(0-last): 917 (128) ng/h/mL
  PCI-45227 Cmax: 405 (74) ng/mL
[1]; female wild-type FVB mice, ibrutinib 10 mg/kg oral, cotreatment ketoconazole 50 mg/kg
  PCI-45227: Ibrutinib AUC ratio: 0.08
[1]; [17]
  PCI-45227 AUC(0-last): 682 (250) ng/h/mL
  PCI-45227 Cmax: 288 (89) ng/mL
[1]; female wild-type FVB mice, ibrutinib 10 mg/kg oral, no cotreatment
  PCI-45227: Ibrutinib AUC ratio: 2.5
[1]; [18]
  PCI-45227 AUC(0-last): 765 (79) ng/h/mL
  PCI-45227 Cmax: 447 (45) ng/mL
[1]; female wild-type FVB mice, ibrutinib 30 mg/kg oral, no cotreatment
  PCI-45227: Ibrutinib AUC ratio: 1.9
[1]; [19]
  PCI-45227 AUC(0-last): 3,281 (154) ng/h/mL
  PCI-45227 Cmax: 837 (77) ng/mL
[1]; male OATP2B1(-/-) mice, ibrutinib 10 mg/kg PO, no co-treatment
  PCI-45227: Parent AUC Ratio: 1.3
[1]; [20]
  PCI-45227 AUC(0-last): 2236 (160)*** ng*hr/mL
  PCI-45227 Cmax: 850 (96)* ng/mL
[1]; male wild-type C57BL/6 mice, ibrutinib 10 mg/kg PO, no co-treatment
  PCI-45227: Parent AUC Ratio: 2.4
[1]; [21]
  PCI-45227 AUC(0-last): 3338 (239) ng*hr/mL
  PCI-45227 Cmax: 1252 (97) ng/mL
[1]; male wild-type FVB mice, ibrutinib 10 mg/kg PO, co-treatment No Vehicle (cobicistat experiment)
  PCI-45227: Parent AUC Ratio: 2.8
[1]; [22]
  PCI-45227 AUC(0-last): 1463 (83) ng*hr/mL
  PCI-45227 Cmax: 578 (100) ng/mL
[1]; male wild-type FVB mice, ibrutinib 10 mg/kg PO, co-treatment None (ketoconazole experiment)
  PCI-45227: Parent AUC Ratio: 2.5
[1]; [23]
  PCI-45227 AUC(0-last): 1080 (153) ng*hr/mL
  PCI-45227 Cmax: 333 (112) ng/mL
[1]; male wild-type FVB mice, ibrutinib 10 mg/kg PO, co-treatment PEG400
  PCI-45227: Parent AUC Ratio: 1.5
[1]; [24]
  PCI-45227 AUC(0-last): 929 (164) ng*hr/mL
  PCI-45227 Cmax: 293 (69) ng/mL
[1]; male wild-type FVB mice, ibrutinib 10 mg/kg PO, co-treatment cobicistat
  PCI-45227: Parent AUC Ratio: 0.096
[1]; [25]
  PCI-45227 AUC(0-last): 417 (60)*** ng*hr/mL
  PCI-45227 Cmax: 124 (34)* ng/mL
[1]; male wild-type FVB mice, ibrutinib 10 mg/kg PO, co-treatment corn oil
  PCI-45227: Parent AUC Ratio: 1.7
[1]; [26]
  PCI-45227 AUC(0-last): 1124 (152)^a ng*hr/mL
  PCI-45227 Cmax: 308 (70) ng/mL
[1]; male wild-type FVB mice, ibrutinib 10 mg/kg PO, co-treatment ketoconazole
  PCI-45227: Parent AUC Ratio: 0.14
[1]; [27]
  PCI-45227 AUC(0-last): 911 (94) ng*hr/mL
  PCI-45227 Cmax: 236 (37) ng/mL
[1]; mice lacking OATP2B1 vs wild-type, ibrutinib 10 mg/kg orally, P < 0.05
  levels of PCI-45227: decreased
[1]; wild-type mice, cobicistat pretreatment
  levels of PCI-45227 and PCI-45227-to-ibrutinib ratio: significantly decreased
[2]; co-treatment cobicistat
  PCI-45227: Parent AUC Ratio: 0.04
  PCI-45227 AUC(0-last): 38 (27) ng*hr/mL
  PCI-45227 Cmax: 25 (11) ng/mL
[2]; co-treatment corn oil
  PCI-45227 AUC(0-last): 311 (15) ng*hr/mL
  PCI-45227 Cmax: 197 (5) ng/mL
[3]; inter-individual variability
  IIV CLm: 0.0242
  IIV Vm: 1.38
[3]
  Fmet (metabolism of PCI-45227): 0.0216
  Vm (volume of distribution for the central compartment of PCI-45227): 0.0578
[3]; residual variability
  RV PCI: 0.730
[4]; acid dissociation constant
  pKa: 4.06
[4]; octanol/water partition coefficient
  Log Po:w: 2.21
[5]; blood to plasma ratio
  B/P ratio: 0.790
[5]; unbound drug in the plasma
  fu, plasma: 0.056

Reference: article PMC8691714 (Cancer Research Communications, 2021)
